Laboratory results from PMC9814792 (Communications Chemistry, 2022).
pIC50: −log10 of the molar value.

Tests used:
A2780 cells = assay: 72 h cell viability (MTT) assay; type: cell-based, human; settings: A2780, 72 h continuous exposure; read-out: IC50 value (95% confidence interval)
Protocol: (§1) Cells were seeded (3–4 ×10^3 cells/well) in 96-well plates in 100 µL and after 24 h recovery treated with 100 µL of compounds at the indicated concentrations in triplicates. After 72 h drug exposure cell viability was determined by 3-(4,5-dimethylthiazol-2-yl)-2,5-diphenyltetrazolium bromide (MTT)-vitality assay (EZ4U, Biomedica, Vienna, Austria) following the manufacturer’s recommendations, as published. Absorbance was measured at 450 nm (at 620 nm as reference) using the multimode plate reader Tecan Infinite 200 Pro (Zurich, Switzerland). Cytotoxicity was expressed as IC50 values calculated from full dose-response curves using the 4 parameter nonlinear regression model of GraphPad Prism 8 software (La Jolla, CA, USA).

A2780/Cis cells = assay: 72 h cell viability (MTT) assay; type: cell-based, human
Protocol: as §1

[1] = set-up: method as in PMID 7895599; settings: patients; cited from earlier work
HCT116/OxR cells = assay: 72 h cell viability (MTT) assay; type: cell-based, human; settings: HCT116/OxR, 72 h continuous exposure; read-out: IC50 value (95% confidence interval)
Protocol: Absorbance was measured at 450 nm (at 620 nm as reference) using the multimode plate reader Tecan Infinite 200 Pro (Zurich, Switzerland). Cytotoxicity was expressed as IC50 values calculated from full dose-response curves using the 4 parameter nonlinear regression model of GraphPad Prism 8 software (La Jolla, CA, USA).

BEC endothelial cells = assay: 72 h cell viability (MTT) assay; type: cell-based, human
Protocol: as §1

HCT116 cells = assay: 72 h cell viability (MTT) assay; type: cell-based, human; settings: HCT116, 72 h continuous exposure; read-out: IC50 value (95% confidence interval)
Protocol: as §1

HaCat keratinocytes = assay: 72 h cell viability (MTT) assay; type: cell-based, human
Protocol: as §1

[2] = test system: HCT116 and HCT116/OxR cells; assay: In vitro platinum cell uptake by ICP-MS; type: cell-based, human; settings: 3 h exposure
Protocol: Cells were seeded at 1.5 ×10^5 cells/well in six-well plates in 1.5 mL and after 24 h recovery treated with 500 µL of compounds at the indicated concentrations in triplicates. After 3 h drug exposure, cells were detached, washed twice with phosphate-buffered saline (PBS), dried at RT for 15 min and lysed in 100 µL HNO3 (69%, Rotipuran Supra, Carl Roth, Karlsruhe, Germany) for 1 h at RT. The lysate was added to fresh tubes containing 200 µL ddH2O. ICP-MS measurements were performed with an Agilent 8800 ICP-MS/MS instrument (Agilent Technologies, Tokyo, Japan). The sample introduction system consisted of a MicroMist nebulizer (200 μL min^−1 nominal sample uptake) and a quartz double-pass spray chamber. The instrument was tuned on a daily basis in order to achieve maximum sensitivity, low oxide formation, and low doubly charged ratios. Platinum was monitored in no gas mode with an integration time of 0.3 s. The flow injection measurements were performed with a bioinert HPLC 1260 (Agilent Technologies, Waldbronn, Germany), which was directly connected to the nebulizer of the ICP-MS/MS instrument with a PEEK tubing. The following chromatographic conditions were used: injection volume: 10 µL; flow rate: 0.30 mL min^-1; isocratic elution; CH3COONH4 (50 mM, pH = 6.8) aqueous solution was employed as mobile phase. The data were recorded and evaluated with the Agilent MassHunter Chromatography software package, MassHunter 4.6., 2019.

[3] = test system: HCT116 and HCT116/OxR cells; assay: Cellular GSH content (GSH/GSSG-Glo); type: cell-based, human; settings: 24 h exposure, single agent
Protocol: (§2) GSH levels in HCT116 and HCT116/OxR cells (7.5 × 10^4 cells per well in 96-well plates, in triplicate), or in CT26 tumor tissues (25–50 mg/sample) were determined using the luminescence-based detection system GSH/GSSG-Glo^TM assay (Promega, Madison, WI) following the manufacturer’s recommendations. Quantifications are based on the comparison with a GSH standard curve delivered in the assay and normalized to the total protein content of the samples determined by the Micro BCA^TM protein assay kit (Thermo Scientific).

[4] = Serum pharmacokinetics (platinum by ICP-MS) after single dose; type: in vivo, BALB/c mice; settings: for serum half-life (fast), two-phase decay model / serum half-life (slow), two-phase decay model / serum half-life, one-phase decay model: serum platinum
Protocol: Blood was drawn after 5 min, 30 min, 6 h, 24 h, 72 h, 1 and 2 weeks from the facial vein as published. Serum was isolated by centrifugation at 900 g for 10 min for two times and stored at –80 °C. In addition, blood samples and tissues from the allograft experiment after the two-weeks therapy experiment were analyzed. Digestion of tissue (approx. 10–30 mg gravimetrically weighted) was performed with 2 mL of approx. 20% nitric acid and 100 µL H2O2 using an open vessel graphite digestion system (coated graphite heating plate, coated sample holder-top for 25 mL vials, perfluoroalkoxy (PFA) vials and PFA lids; Labter, ODLAB; AHF Analysentechnik AG; Germany). HNO3 (67–69%, suprapur for trace metal analysis, NORMATOM; VWR international, Austria) and conc. H2O2 suprapur (Merck, 30%) were used without further purification. Ultrapure water (18.2 MΩ cm, Milli-Q Advantage, Darmstadt, Germany) was used for all dilutions for ICP-MS measurements. Platinum and rhenium standards for ICP-MS measurements were derived from CPI International (Amsterdam, The Netherlands). The platinum content was determined using an Agilent 7800 ICP-MS instrument. The ICP-MS Agilent 7800® (Agilent Technologies, Tokyo, Japan) was equipped with an Agilent SPS 4 autosampler (Agilent Technologies, Tokyo, Japan) and a MicroMist nebulizer at a sample uptake rate of approx. 0.2 mL/min. The Agilent MassHunter® software package (Workstation Software, version C.01.04, Build 544.17, Patch 3, 2018) was used for data processing. The instrument was tuned on a daily basis to achieve maximum sensitivity. In case of the single-dose experiment, serum area-under the curve (AUC) and serum half-life (one-phase and two-phase decay models) were determined using the respective non-linear fit regression models of GraphPad Prism software.

CT26 allografts = assay: In vivo anticancer activity, CT26 allografts; set-up: species or system BALB/c mice; settings: for tumor doubling time extended: CT26 allografts, equimolar doses; for tumor doubling time extended / maximal tumor growth inhibition: twice a week for two weeks; for maximal tumor growth inhibition: day 11, CT26 allografts, equimolar to 9 mg/kg oxaliplatin i.v.; for tumor volumes as compared to solvent controls: first two weeks of treatment
Protocol: (§3) Eight-to nine-week-old female BALB/c mice bred in-house (originally Janvier) were kept in pathogen-free conditions and controlled environment with 12 h light-dark cycle. CT26 cells (5 × 10^5 in 50 µL serum-free RPMI medium) were injected subcutaneously (s.c.) into the right flank of the animals. […] Tumor growth was evaluated by daily recording of tumor size by caliper measurement. […] The reasons were primarily either enhanced tumor size or ulceration. For drug distribution (digestion and ICP-MS measurement details see below), histological and GSH determination experiments, mice were treated twice during one week and sacrificed 24 h after the last drug dosing. The animal experiments were performed according to the regulations of the Ethics Committee for the Care and Use of Laboratory Animals at the Medical University Vienna (proposal number BMBWF-V/3b 2020-0.380.502).

CT26 tumor tissue = assay: Tumor tissue markers (mitoses, Ki-67, pH2AX, GSH) after one week of therapy; type: in vivo, BALB/c mice; settings: for number of mitotic tumor cells as compared to solvent controls: H&E-stained sections
Protocol: (§4) Eight-to nine-week-old female BALB/c mice bred in-house (originally Janvier) were kept in pathogen-free conditions and controlled environment with 12 h light-dark cycle. CT26 cells (5 × 10^5 in 50 µL serum-free RPMI medium) were injected subcutaneously (s.c.) into the right flank of the animals. […] Tumor growth was evaluated by daily recording of tumor size by caliper measurement. […] For drug distribution (digestion and ICP-MS measurement details see below), histological and GSH determination experiments, mice were treated twice during one week and sacrificed 24 h after the last drug dosing. The animal experiments were performed according to the regulations of the Ethics Committee for the Care and Use of Laboratory Animals at the Medical University Vienna (proposal number BMBWF-V/3b 2020-0.380.502).
(§5) Formalin-fixed, paraffin-embedded tissue sections were prepared from tumors and animal organs (animal experiment details see above) and H&E stains performed by standard methods. Mouse-specific Ki-67 rabbit mAb (#12202) and mouse-specific pH2AX rabbit mAb (#9718) were purchased from Cell Signaling Technology (Beverly, MA, USA) and used following the manufacturer’s recommendations in a dilution of 1:200 (Ki-67) and 1:500 (pH2AX) for immunohistochemical staining.
as §2

[5] = test system: kidney, lung, liver sections; assay: pH2AX DNA damage staining in healthy organs; type: in vivo, BALB/c mice; settings: lung and kidney sections
Protocol: as §3, §5

Tolerability in mice = type: in vivo, BALB/c mice
Protocol: as §3

albumin = biological target: T1, albumin (Bos taurus, UniProt P02769); assay: Albumin binding in fetal calf serum by SEC-ICP-MS; type: in vitro ADME; settings: fetal calf serum 37 °C, 100 μM
T1 construct: tissue Sigma-Aldrich; host or cells: fetal calf serum
T1 sequence (P02769 25-607): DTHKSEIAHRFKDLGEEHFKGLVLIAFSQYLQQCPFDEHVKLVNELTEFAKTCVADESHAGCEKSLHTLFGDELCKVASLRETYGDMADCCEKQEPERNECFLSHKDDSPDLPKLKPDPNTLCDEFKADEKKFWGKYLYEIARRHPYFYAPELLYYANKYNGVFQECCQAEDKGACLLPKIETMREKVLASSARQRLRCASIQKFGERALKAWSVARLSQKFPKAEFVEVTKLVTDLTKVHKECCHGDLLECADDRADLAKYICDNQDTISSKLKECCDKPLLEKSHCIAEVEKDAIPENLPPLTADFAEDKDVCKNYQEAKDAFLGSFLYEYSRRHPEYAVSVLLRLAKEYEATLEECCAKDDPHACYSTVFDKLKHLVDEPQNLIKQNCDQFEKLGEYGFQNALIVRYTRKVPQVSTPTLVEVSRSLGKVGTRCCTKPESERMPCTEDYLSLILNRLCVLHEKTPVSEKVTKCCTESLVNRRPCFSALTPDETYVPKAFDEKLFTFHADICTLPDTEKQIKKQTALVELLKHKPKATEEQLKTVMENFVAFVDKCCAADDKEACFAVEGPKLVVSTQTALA
Protocol: Fetal calf serum was purchased from Sigma-Aldrich and buffered with 150 mM phosphate buffer (pH 7.4) to guarantee a stable pH. The platinum(IV) complexes were dissolved in 150 mM phosphate buffer (pH 7.4) to 1 mM and diluted 1:10 in serum to obtain a final concentration of 100 μM. The samples were then incubated in the autosampler at 37 °C for 24 h and analyzed at 0 h, 1 h, 4 h, and 24 h. Between each sample, a pure water blank was measured. For SEC-ICP-MS measurements, an Agilent 1260 Infinity system coupled to an Agilent 7800 ICP-MS equipped with a dynamic reaction cell was used. Oxygen (purity 5.5, Messer AustriaGmbH, Gumpoldskirchen, Austria) was used as reaction gas at 30% and 0.9 L/min flow.

[6] = Tissue/organ platinum distribution in CT26 allograft mice; type: in vivo, BALB/c mice; settings: two i.v. doses in one week, 24 h after second dosing
Protocol: as §4

N.N.[Cl][Pt][Cl] [cisplatin, reference compound]
pIC50 (A2780 cells): 5.72
pIC50 (A2780/Cis cells; A2780/Cis, 72 h continuous exposure, read-out: IC50 value (95% confidence interval)): 5.11
resistance factor (A2780/Cis cells; IC50 A2780/Cis divided by IC50 A2780): 4.1

CCCCS(=N)(=O)CC[C@H](N)C(=O)O (stereo partly drawn) [BSO, L-Buthionine-S,R-sulfoximine]
plasma half-life [1]: < 2 h

O=C1[O][Pt]2([NH][C@@H]3CCCC[C@H]3[NH]2)[O]C1=O [oxaliplatin, reference compound]
pIC50 (HCT116/OxR cells): < 5.00
pIC50 (BEC endothelial cells): 4.99
pIC50 (HCT116 cells): 6.24
pIC50 (HaCat keratinocytes): 5.47
intracellular accumulation in HCT116/OxR as compared to parental HCT116 [2]: significantly reduced
impact on cellular GSH content [3]: did not alter the GSH content
serum half-life (fast), two-phase decay model ([4]; single equimolar dose, mice): 0.1528 h
serum half-life (slow), two-phase decay model ([4]; single equimolar dose, mice): 15.38 h
serum half-life, one-phase decay model ([4]; single equimolar dose, mice): 0.2624 h
tumor doubling time extended (CT26 allografts): 1.3 fold
maximal tumor growth inhibition (CT26 allografts): 51.3%
tumor volumes as compared to solvent controls (CT26 allografts): significantly reduced tumor volumes
number of mitotic tumor cells as compared to solvent controls (CT26 tumor tissue; one week of therapy): significantly reduced
GSH content in malignant tissue (CT26 tumor tissue; one week of therapy): distinctly reduced the content of GSH
DNA damage (pH2AX) in healthy organs [5]: induced pH2AX-positive cells in both lung and kidney samples
maximum tolerated dose (MTD) (Tolerability in mice): 9 mg/kg

CCCCS(=N)(=O)CCC(NC(=O)[O][Pt]1([O]C(=O)NCCCCCN2C(=O)C=CC2=O)[O]C(=O)C(=O)[O]1)C(=O)O.NC1CCCCC1N (mixture of isomers) [BSO-OxMal, (OC-6-24)-((1 S)-3-(Butylsulfonimidoyl)-1-carboxypropyl)carbamato(1 R,2 R)-1,2-cyclohexanediamino(5-(2,5-dioxo-2,5-dihydro-1H-pyrrol-1-yl)pentyl)carbamatooxalatoplatinum(IV)]
bound to albumin fraction (albumin; t 0 h): 76%
free (low molecular weight fraction) (albumin; t 0 h): 24%
bound to albumin fraction (albumin; t 1 h): 100%
free (low molecular weight fraction) (albumin; t 1 h): 0%
bound to albumin fraction (albumin; t 4 h): 100%
free (low molecular weight fraction) (albumin; t 4 h): 0%
bound to albumin fraction (albumin; t 24 h): 97%
free (low molecular weight fraction) (albumin; t 24 h): 3%
serum half-life higher as compared to oxaliplatin ([4]; depending on the regression model used): more than 10 fold
serum half-life (fast), two-phase decay model ([4]; single equimolar dose, mice): 1.217 h
serum half-life (slow), two-phase decay model ([4]; single equimolar dose, mice): 22.28 h
serum half-life, one-phase decay model ([4]; single equimolar dose, mice): 3.968 h
increase of AUC (total area) as compared to oxaliplatin ([4]; single equimolar dose, mice): > 12 fold
increased serum platinum levels in comparison to oxaliplatin [6]: more than 20 fold
tumor doubling time extended (CT26 allografts): 1.8 fold
overall survival (CT26 allografts; Kaplan Meier, Mantel-Cox test): significantly increased overall survival
maximal tumor growth inhibition (CT26 allografts): 61.2%
tumor volumes as compared to solvent controls (CT26 allografts): significantly reduced tumor volumes
number of mitotic tumor cells as compared to solvent controls (CT26 tumor tissue; one week of therapy): significantly reduced
DNA damage (pH2AX) in tumor (CT26 tumor tissue; non-necrotic parts of the tumor): distinctly enhanced DNA damage as compared to oxaliplatin
Ki-67 antiproliferative effect (CT26 tumor tissue; non-necrotic tumor regions, one week of therapy): significantly stronger antiproliferative effect
GSH content in malignant tissue (CT26 tumor tissue; one week of therapy): significantly stronger effect
DNA damage (pH2AX) in healthy organs [5]: avoids renal DNA damage
